“And” between values parts separate entries of the source, which are not always exact repeats. Equal entries are not always repeated. “Also recorded” adds a separate entry of the source. Where two headings read alike, the source gives them in different places.
How the values were obtained:
Gpt = Gpt (Escherichia coli, UniProt P0A9M5); design: method as in ref 29-32 (Table S1 refs 1, 2); conditions: ref 29-32 (Table S1 refs 1, 2); cited from earlier work
EF-G = target: EF-G; design: method as in Table S1 (9); conditions: ref Table S1 (9), cited from earlier work
SaDer = SaDer (Staphylococcus aureus, UniProt A6QH24); assay: DRaCALA Kd determination, SaDer; assay type: binding, S. aureus
Procedure: For Kd measurements by DRaCALA, 2-fold serial dilutions from the highest possible concentrations of each purified protein were prepared in binding buffer B, and approximately 2 nM concentrations of α-^32P-labeled ppGpp, pppGpp, GTP, and GDP were added. The mixtures were incubated for 5 min at RT before spotting of 2 µl of the reaction mixtures onto nitrocellulose membranes. The fractions of bound ligand and the apparent Kd values were calculated as previously described ([37]).

Gmk = system: Gmk; design: method as in Table S1 (3); conditions: ref Table S1 (3); read-out: IC50, B. subtilis Gmk; cited from earlier work
HprT = system: HprT; design: method as in ref 46 (Table S1 ref 3); conditions: ref 46 (Table S1 ref 3); read-out: IC50, B. subtilis HprT; cited from earlier work
NadR = NadR (Escherichia coli, UniProt P27278); assay: In vitro cleavage assay (TLC), NadR; assay type: biochemical, E. coli; conditions: 10-20 µM NadR, buffer B with 100 mM NaCl, 10 min
Procedure: The purified His6-MutT and His6-NudG proteins were tested for their relative levels of cleavage of ppGpp compared to those seen with their native substrates. For this, a 1 μM concentration of each protein and a 10 nM concentration of [α-^32P]ppGpp were used together with 100 μM concentrations of cold competitors [ppGpp, GTP, ATP, 8-oxo-(d)GTP, 2-hydroxyl-(d)ATP] or 50 mM EDTA in buffer B. The samples were incubated at 30°C for 10 min and for 1 h before the reactions were stopped by adding 50 mM EDTA. The cleavage products were resolved by TLC as described above. The purified His6-NadR and His6-TrmE proteins were tested for their cleavage of both GTP and ppGpp. […]
A 20 μM concentration of each of purified proteins MutT, NudG, NadR, TrmE, and MBP (as a negative control) was incubated with 100 μM ppGpp in buffer B (containing 40 mM Tris [pH 7.5], 100 mM NaCl, and 10 mM MgCl2) for 20 min at room temperature. Samples were snap-frozen on dry ice and analyzed with UPLC-MS afterward. […] The detection conditions were as follows: photodiode array detector (PDA), […] (evaluated at 260 nm); MS, ionization; electrospray ionization (ESI+), scan, 200 to 800 m/z with lock mass correction. […]

LepA = LepA (Escherichia coli, UniProt P60785); assay: DRaCALA binding curves, purified LepA; design: species or system E. coli; conditions: Kd could not be determined
Procedure: For Kd measurements by DRaCALA, 2-fold serial dilutions from the highest possible concentrations of each purified protein were prepared in binding buffer B, and approximately 2 nM concentrations of α-^32P-labeled ppGpp, pppGpp, GTP, and GDP were added. The mixtures were incubated for 5 min at RT before spotting of 2 µl of the reaction mixtures onto nitrocellulose membranes. The fractions of bound ligand and the apparent Kd values were calculated as previously described ([37]). For competition assays, purified proteins at the specified concentrations were incubated with 2 nM [α-^32P]ppGpp or [α-^32P]pppGpp in the presence of 100 μM competitor nucleotides in binding buffer B. The reaction mixtures were incubated for 5 min at RT, 2 µl was spotted onto nitrocellulose membranes, and the values corresponding to the bound fractions were determined. EDTA was added at excess concentrations as specified for each case.

[1] = target: SaRF3 (PrfC from S. aureus) (Staphylococcus aureus, UniProt A6QFN0); assay: DRaCALA binding, SaRF3; conditions: 12 µM protein
RelA = system: RelA; design: method as in ref 36 (Table S1 ref 16); conditions: ref 36 (Table S1 ref 16); cited from earlier work
SpeC = target: SpeC; design: method as in Table S1 (19); conditions: ref Table S1 (19); cited from earlier work
ObgE = ObgE (Escherichia coli, UniProt P42641); design: method as in Table S1 (7); conditions: ref Table S1 (7); cited from earlier work
LdcC = target: LdcC; design: method as in Table S1 (19); conditions: ref Table S1 (19); cited from earlier work
GppA = system: GppA; design: method as in Table S1 (17); conditions: ref Table S1 (17); cited from earlier work

Chain of LepA (P60785 whole entry): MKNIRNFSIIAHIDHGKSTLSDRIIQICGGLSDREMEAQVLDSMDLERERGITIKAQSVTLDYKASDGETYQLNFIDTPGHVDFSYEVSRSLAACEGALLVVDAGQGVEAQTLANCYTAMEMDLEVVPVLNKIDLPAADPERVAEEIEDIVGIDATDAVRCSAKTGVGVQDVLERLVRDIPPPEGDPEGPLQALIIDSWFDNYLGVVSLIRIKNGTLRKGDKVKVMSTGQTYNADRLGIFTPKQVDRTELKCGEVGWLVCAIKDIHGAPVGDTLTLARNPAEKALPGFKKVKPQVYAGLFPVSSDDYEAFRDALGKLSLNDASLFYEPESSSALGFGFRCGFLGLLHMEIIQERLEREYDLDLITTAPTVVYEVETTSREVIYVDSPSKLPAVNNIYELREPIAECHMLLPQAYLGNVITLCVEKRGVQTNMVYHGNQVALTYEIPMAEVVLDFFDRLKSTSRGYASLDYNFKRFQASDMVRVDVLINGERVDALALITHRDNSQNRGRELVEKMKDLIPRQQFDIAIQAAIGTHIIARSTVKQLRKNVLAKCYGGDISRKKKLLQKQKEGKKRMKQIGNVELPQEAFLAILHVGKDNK
Chain of SaRF3 (PrfC from S. aureus) (A6QFN0 whole entry): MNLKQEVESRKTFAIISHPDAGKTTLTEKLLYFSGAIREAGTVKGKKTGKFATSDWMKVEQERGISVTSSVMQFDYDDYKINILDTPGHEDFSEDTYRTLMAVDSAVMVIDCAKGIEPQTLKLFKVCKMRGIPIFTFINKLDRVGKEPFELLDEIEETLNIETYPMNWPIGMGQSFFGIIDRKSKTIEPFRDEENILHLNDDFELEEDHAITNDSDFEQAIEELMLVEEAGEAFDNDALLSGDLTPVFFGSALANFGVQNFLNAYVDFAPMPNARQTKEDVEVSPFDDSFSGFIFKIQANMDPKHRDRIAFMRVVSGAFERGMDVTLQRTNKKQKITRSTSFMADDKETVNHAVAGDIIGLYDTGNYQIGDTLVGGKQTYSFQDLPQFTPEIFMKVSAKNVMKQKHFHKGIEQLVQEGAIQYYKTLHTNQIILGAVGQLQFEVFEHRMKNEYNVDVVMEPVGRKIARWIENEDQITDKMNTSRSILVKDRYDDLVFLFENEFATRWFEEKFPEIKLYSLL
Chain of Gpt (P0A9M5 whole entry): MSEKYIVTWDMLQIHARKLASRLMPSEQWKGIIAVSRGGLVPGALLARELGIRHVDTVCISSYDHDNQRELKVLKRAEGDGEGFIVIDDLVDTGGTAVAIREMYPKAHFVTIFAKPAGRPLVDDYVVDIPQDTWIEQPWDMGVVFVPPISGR
Chain of ObgE (P42641 whole entry): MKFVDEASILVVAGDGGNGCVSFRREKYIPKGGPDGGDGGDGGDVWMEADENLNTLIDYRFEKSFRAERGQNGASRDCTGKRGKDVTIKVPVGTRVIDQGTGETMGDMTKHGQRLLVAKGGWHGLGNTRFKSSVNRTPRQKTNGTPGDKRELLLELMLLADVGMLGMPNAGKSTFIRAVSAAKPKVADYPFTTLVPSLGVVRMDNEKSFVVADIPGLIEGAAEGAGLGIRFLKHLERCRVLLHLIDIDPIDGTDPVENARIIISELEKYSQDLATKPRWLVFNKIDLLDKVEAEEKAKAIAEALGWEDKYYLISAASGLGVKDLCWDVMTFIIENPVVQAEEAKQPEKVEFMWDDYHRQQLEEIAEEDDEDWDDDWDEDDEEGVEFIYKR
Chain of NadR (P27278 whole entry): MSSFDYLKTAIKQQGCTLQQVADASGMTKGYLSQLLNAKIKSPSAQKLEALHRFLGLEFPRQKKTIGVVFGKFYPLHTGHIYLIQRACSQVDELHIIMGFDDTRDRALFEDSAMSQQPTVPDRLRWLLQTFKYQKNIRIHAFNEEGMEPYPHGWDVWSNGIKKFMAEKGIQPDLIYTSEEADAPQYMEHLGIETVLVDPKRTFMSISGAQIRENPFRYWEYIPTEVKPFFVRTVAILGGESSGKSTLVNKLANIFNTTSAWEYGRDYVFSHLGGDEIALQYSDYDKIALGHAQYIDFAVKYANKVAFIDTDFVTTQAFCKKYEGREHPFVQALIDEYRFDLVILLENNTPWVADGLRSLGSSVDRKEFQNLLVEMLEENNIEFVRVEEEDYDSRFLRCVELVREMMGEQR
Chain of SaDer (A6QH24 whole entry): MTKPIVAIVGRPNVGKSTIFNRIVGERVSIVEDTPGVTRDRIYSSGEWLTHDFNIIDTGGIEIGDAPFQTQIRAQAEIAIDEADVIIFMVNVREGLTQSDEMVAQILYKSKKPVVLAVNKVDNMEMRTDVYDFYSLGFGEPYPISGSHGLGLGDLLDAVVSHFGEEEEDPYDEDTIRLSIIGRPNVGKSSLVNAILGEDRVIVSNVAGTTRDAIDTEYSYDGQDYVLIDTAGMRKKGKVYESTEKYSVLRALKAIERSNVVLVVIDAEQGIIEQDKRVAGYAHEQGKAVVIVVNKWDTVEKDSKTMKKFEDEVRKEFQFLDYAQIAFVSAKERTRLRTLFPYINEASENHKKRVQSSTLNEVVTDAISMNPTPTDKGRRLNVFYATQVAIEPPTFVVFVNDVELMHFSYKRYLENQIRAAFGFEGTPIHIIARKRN

Row | SMILES | IC50 (Gpt) | Ki (EF-G; in the absence of EF-Ts) | Ki (EF-G; in the presence of EF-Ts) | Kd (SaDer) | IC50 (Gmk) | IC50 (HprT) | cleavage by NadR (NadR) | relative binding to LepA (binding curves) (LepA) | binding to SaRF3 [1] | effect on RelA activity (RelA) | Kd (SpeC) | Ki (ObgE) | Kd (LdcC) | conversion by GppA (GppA)
1 | Nc1nc2c(ncn2[C@@H]2O[C@H](COP(=O)(O)OP(=O)(O)O)[C@@H](OP(=O)(O)OP(=O)(O)O)[C@H]2O)c(=O)[nH]1 [ppGpp, guanosine tetraphosphate] | ~85 µM and 85 µM | 0.7 µM | 40 µM | 3.8 ± 0.5 µM | 20 µM | 11 µM | converted most of ppGpp | tighter binding of ppGpp than pppGpp; also recorded: ND; stronger binding to ppGpp than pppGpp | very weak binding (if any); also recorded: No binding of ppGpp by 12 µM of PrfC from S. aureus | allosterically stimulates | 0.598 ± 0.068 µM | 1.6 µM | 0.1 to 0.5 µM | 
2 | Nc1nc2c(ncn2[C@@H]2O[C@H](COP(=O)(O)OP(=O)(O)OP(=O)(O)O)[C@@H](OP(=O)(O)OP(=O)(O)O)[C@H]2O)c(=O)[nH]1 [pppGpp, guanosine pentaphosphate] |  |  |  |  |  |  |  |  |  |  |  |  |  | Convert pppGpp to ppGpp; (17)
